# Results taken from patent US7977326B2, “Supportive treatment of liver disease” (priority 2004, dated 2011).
# Where two headings read alike, the source gives them in different places.
# How the values were obtained:
# [1] = test system: piglet hepatic microsomal membranes; experiment: Parallel studies using H2O2 as a free radical generator; assay type: biochemical
# [2] = test system: piglet hepatic microsomal membranes; experiment: DCF activity in AAPH induced free radical release in microsomes (lipid peroxidation); assay type: biochemical; set-up: DCF activity in AAPH induced free radical release: unit not given here; conditions: for inhibition of membrane oxidation (reduction in DCF activity): 0-1000 μM, AAPH; for DCF activity in AAPH induced free radical release: one hour at 37° C. then one hour AAPH
# Protocol: The protective effect of diltiazem on cell membranes was examined in piglet hepatic microsomal membranes obtained from the livers of 3-week-old female piglets. […] Following incubation the microsomal mixture was centrifuged at 2000 rpm to remove excess AAPH and diltiazem. The extent of reactive oxygen species mediated lipid peroxidation in the microsomal membranes was then measured employing the fluorescence market dichlorofluoresen (DCF, 10μ for 15 min). Image analysis.
# [3] = test system: microvascular blood flow within the liver; conditions: in vivo; cited from earlier work
# [4] = test system: Hepatic liver microsomes; conditions: for Fluorescence Activity: 1 mM AAPH, n=6
# Protocol: Hepatic liver microsomes were obtained from 4 healthy piglets as described previously. Microsomes were stored at −80° C. until required for study. Concentration of microsomes was 1 mg/ml. Diltiazem concentrations were 50 and 500 μM, Thiamine concentrations tested included 10, 50, and 100 μM. Free radical generator AAPH was 1 mM. The study detected hepatic lipid peroxidation products by analyzing the fluorescence activity of the dye DCFH by a plate reader as described in our previous report.
# DCF-DA was treated with 2M NaOH and MeOH for 2 hours and after which time it was neutralized with HCl to yield the intracellular form of DCFH as described by the manufacturer. Hepatic microsomes were diluted to 1 mg/ml using Phosphate Buffered Saline (PBS). Microsomes were incubated with various concentrations of diltiazem, thiamine or in combination at 37° C. for 1 hour. Control microsomes were incubated with PBS (no drug treatment). Microsomal mixture was then incubated with 1 mM AAPH for 1 hour to initiate free radical induced lipid peroxidation for 1 hour at 37° C. Following incubation, the microsomal mixture was centrifuged at 2000 rpm using 5000 MWCO ultracentrifuge tubes and the procedure repeated twice with PBS to remove any AAPH and drug. Lipid peroxidized microsomes were incubated with 10 μM DCFH for 15 minutes and fluorescence activity recorded using a fluorescence plate reader.
# [5] = test system: patients with Hepatitis B; conditions: cited from earlier work
SMILES,protection against H2O2 as free radical generator [1],inhibition of membrane oxidation (reduction in DCF activity) [2],DCF activity in AAPH induced free radical release ([2]; 5 μM),DCF activity in AAPH induced free radical release ([2]; 50 μM),DCF activity in AAPH induced free radical release ([2]; 250 μM),DCF activity in AAPH induced free radical release ([2]; 500 μM),DCF activity in AAPH induced free radical release ([2]; 1000 μM),effect on microvascular blood flow within the liver [3],Fluorescence Activity ([4]; Diltiazem 50 μM),Fluorescence Activity ([4]; Diltiazem 500 μM),Fluorescence Activity ([4]; Thiamine 10 μM),Fluorescence Activity ([4]; Thiamine 50 μM),Fluorescence Activity ([4]; Thiamine 100 μM),"effect on fluorescence activity (free radical release), in words ([4]; thiamine added to microsomes)",effect on liver function [5]
"COc1ccc([C@@H]2Sc3ccccc3N(CCN(C)C)C(=O)[C@@H]2OC(C)=O)cc1 (relative stereo) [Diltiazem, cis-(+)-3-(acetyloxy)-5-[2-(dimethylamino)ethyl]-2,3-dihydro-2-(4-methoxyphenyl)-1,5-benzothiazepin-4(5H)-one]",not protective,dose-dependent inhibition of membrane oxidation,44501,38293,35148,31498,27258,no effect,36492,32271,–,–,–,–,–
COc1ccc([C@H]2Sc3ccccc3N(CCN(C)C)C(=O)[C@H]2OC(C)=O)cc1 [L-diltiazem],–,not,52799,49949,51120,53182,49937,–,–,–,–,–,–,–,–
"Cc1ncc(C[n+]2csc(CCO)c2C)c(N)n1 [Thiamine, thiamine]",–,–,–,–,–,–,–,–,–,–,31113,27265,23477,reduced the fluorescence activity,improve liver function
